# According to patent publication US20150175599A1, “FAAH Inhibitors” (Ironwood Pharmaceuticals, Inc., priority 2010, published 2015):
# Like-named read-outs stand apart in the source and are kept apart here.
# How the values were obtained:
# [1] = biological target: T1, FAAH (Homo sapiens, UniProt O00519); experiment: FAAH inhibition, human brain membrane homogenate assay; format: biochemical
# T1 construct: Reactions were initiated by adding 12.5 μg of brain microsome; tissue ABS, Inc; host or cells: human brain cerebral cortex, membrane/microsome fraction pooled from 3 donors
# T1 sequence (O00519 1-579): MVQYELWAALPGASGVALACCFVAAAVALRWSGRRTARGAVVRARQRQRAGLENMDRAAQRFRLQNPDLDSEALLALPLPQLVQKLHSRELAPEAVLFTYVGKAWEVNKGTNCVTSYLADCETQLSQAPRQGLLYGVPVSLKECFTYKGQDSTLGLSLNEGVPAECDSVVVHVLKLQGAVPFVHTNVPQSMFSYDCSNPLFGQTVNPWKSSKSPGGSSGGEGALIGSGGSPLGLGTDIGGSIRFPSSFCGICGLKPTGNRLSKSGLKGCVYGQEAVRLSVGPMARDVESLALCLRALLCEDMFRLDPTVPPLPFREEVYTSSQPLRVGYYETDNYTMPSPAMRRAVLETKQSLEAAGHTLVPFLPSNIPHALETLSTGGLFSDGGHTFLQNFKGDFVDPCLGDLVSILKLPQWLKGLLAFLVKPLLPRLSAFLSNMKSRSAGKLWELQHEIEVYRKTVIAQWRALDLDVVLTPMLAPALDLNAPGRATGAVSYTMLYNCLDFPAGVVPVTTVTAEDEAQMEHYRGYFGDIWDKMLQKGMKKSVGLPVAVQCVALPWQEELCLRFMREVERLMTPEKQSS
# [2] = biological target: T2, hERG channel (Homo sapiens, UniProt Q12809); experiment: hERG channel inhibition, automated patch clamp (IonWorks HT, hERG-CHO); format: cell-based; settings: CHO cells expressing hERG, 600 s incubation; for inhibition at 600 s, 1 µM: 1 μM compound, read-out: hERG Channel Inhibition % (at 1 μM), vehicle-subtracted values; for inhibition at 600 s, 10 µM: 10 μM compound, read-out: hERG Channel Inhibition % (at 10 μM), vehicle-subtracted values
# T2 construct: expressed in transfected cells; host or cells: CHO (hERG-CHO), under Geneticin selection
# T2 sequence (Q12809 whole entry): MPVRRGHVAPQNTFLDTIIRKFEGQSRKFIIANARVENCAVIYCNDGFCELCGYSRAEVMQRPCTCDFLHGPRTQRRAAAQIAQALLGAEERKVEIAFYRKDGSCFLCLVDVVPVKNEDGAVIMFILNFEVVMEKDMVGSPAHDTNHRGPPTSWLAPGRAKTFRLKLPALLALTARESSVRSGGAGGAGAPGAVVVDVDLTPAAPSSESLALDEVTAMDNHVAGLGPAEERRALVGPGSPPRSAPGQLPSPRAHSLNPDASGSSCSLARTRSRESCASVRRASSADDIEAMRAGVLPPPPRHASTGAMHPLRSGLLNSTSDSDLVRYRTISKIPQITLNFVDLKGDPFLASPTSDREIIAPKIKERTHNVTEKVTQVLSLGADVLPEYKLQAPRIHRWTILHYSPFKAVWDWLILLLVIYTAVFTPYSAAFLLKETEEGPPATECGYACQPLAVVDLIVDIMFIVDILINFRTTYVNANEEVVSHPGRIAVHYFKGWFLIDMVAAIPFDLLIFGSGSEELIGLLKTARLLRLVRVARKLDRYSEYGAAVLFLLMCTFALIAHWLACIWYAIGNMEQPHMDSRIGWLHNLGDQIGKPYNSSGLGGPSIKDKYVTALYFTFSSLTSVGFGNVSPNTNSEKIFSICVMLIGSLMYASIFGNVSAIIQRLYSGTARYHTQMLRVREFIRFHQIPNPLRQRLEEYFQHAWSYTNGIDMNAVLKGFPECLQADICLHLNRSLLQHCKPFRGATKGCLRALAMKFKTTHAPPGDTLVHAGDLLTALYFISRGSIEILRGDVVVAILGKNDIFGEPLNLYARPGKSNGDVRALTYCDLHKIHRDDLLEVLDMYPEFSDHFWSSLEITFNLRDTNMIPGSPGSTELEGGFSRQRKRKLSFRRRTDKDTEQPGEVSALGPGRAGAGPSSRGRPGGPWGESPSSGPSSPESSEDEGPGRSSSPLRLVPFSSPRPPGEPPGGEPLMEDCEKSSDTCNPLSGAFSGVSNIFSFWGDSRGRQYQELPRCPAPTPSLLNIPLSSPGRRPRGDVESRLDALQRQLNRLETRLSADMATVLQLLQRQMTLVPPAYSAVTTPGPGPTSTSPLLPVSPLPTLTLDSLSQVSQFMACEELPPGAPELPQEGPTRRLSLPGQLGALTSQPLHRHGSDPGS
# Outline: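 hERG-CHO cells held at 30 °C for 48 h before IonWorks HT patch clamp: from −80 mV to +40 for 2 s, then −50 mV for 2 s tail, repeated three times, before and after 600 s compound exposure. Third-pulse post/pre tail amplitude ratio gave percent inhibition; cells with seal <50 MOhm or tail <250 pA excluded.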
# [3] = human brain homogenate, average activity, read-out: Human brain Extract FAAH IC50
Compound,"IC50 [1, 3]","inhibition at 600 s, 1 µM [2]","inhibition at 600 s, 10 µM [2]",IC50 [1]
"COc1cc(NC(=O)C(=O)c2c(C)n(Cc3ccc(Cl)cc3)c3ccc(OC)c(F)c23)ccn1 [Compound 59, 2-(1-(4-chlorobenzyl)-4-fluoro-5-methoxy-2-methyl-1H-indol-3-yl)-N-(2-methoxypyridin-4-yl)-2-oxoacetamide]",< 100 nM,< 25%,25 to 50%,–
"COc1cc(NC(=O)C(=O)c2c(C)n(Cc3ccc(Cl)cn3)c3cc(Cl)c(OC)cc23)ccn1 [Compound 60, 2-(6-chloro-1-((5-chloropyridin-2-yl)methyl)-5-methoxy-2-methyl-1H-indol-3-yl)-N-(2-methoxypyridin-4-yl)-2-oxoacetamide]",< 100 nM,< 25%,25 to 50%,–
"COc1cc(NC(=O)C(=O)c2c(C)n(Cc3ccc(Cl)cn3)c3ccc(C)cc23)ccn1 [Compound 61, 2-(1-((5-chloropyridin-2-yl)methyl)-2,5-dimethyl-1H-indol-3-yl)-N-(2-methoxypyridin-4-yl)-2-oxoacetamide]",< 100 nM,25 to 50%,50 to 75%,–
"COc1cc(NC(=O)C(=O)c2c(C)n(Cc3ccc(Cl)cn3)c3ccc(Cl)cc23)ccn1 [Compound 63, 2-(5-chloro-1-((5-chloropyridin-2-yl)methyl)-2-methyl-1H-indol-3-yl)-N-(2-methoxypyridin-4-yl)-2-oxoacetamide]",< 100 nM,< 25%,50 to 75%,–
"COc1cc(NC(=O)C(=O)c2c(C)n(Cc3ccc(Cl)cn3)c3cc(F)c(OC)cc23)ccn1 [Compound 64, 2-(1-((5-chloropyridin-2-yl)methyl)-6-fluoro-5-methoxy-2-methyl-1H-indol-3-yl)-N-(2-methoxypyridin-4-yl)-2-oxoacetamide]",< 100 nM,< 25%,25 to 50%,–
"COc1cc(NC(=O)C(=O)c2c(C)n(Cc3ccc(Cl)cn3)c3cc(OC)c(Cl)cc23)ccn1 [Compound 67, 2-(5-chloro-1-((5-chloropyridin-2-yl)methyl)-6-methoxy-2-methyl-1H-indol-3-yl)-N-(2-methoxypyridin-4-yl)-2-oxoacetamide]",< 100 nM,< 25%,< 25%,–
"COc1cc(NC(=O)C(=O)c2c(C)n(Cc3ccc(Cl)cn3)c3ccccc23)ccn1 [Compound 68, 2-(1-((5-chloropyridin-2-yl)methyl)-2-methyl-1H-indol-3-yl)-N-(2-methoxypyridin-4-yl)-2-oxoacetamide]",< 100 nM,< 25%,< 25%,–
"COc1ccc(Cn2c(C)c(C(=O)C(=O)Nc3ccnc(OC)c3)c3cc(C)ccc32)nc1 [Compound 69, 2-(1-((5-methoxypyridin-2-yl)methyl)-2,5-dimethyl-1H-indol-3-yl)-N-(2-methoxypyridin-4-yl)-2-oxoacetamide]",< 100 nM,< 25%,< 25%,–
"COc1cc(NC(=O)C(=O)c2c(C)n(Cc3ncc(Cl)cc3Cl)c3cc(Cl)c(OC)cc23)ccn1 [Compound 70, 2-(6-chloro-1-((3,5-dichloropyridin-2-yl)methyl)-5-methoxy-2-methyl-1H-indol-3-yl)-N-(2-methoxypyridin-4-yl)-2-oxoacetamide]",< 100 nM,< 25%,< 25%,–
"Cc1c(C(=O)C(=O)Nc2cccc(Cl)c2)c2cc(O)ccc2n1Cc1ccc(Cl)cc1 [Compound 71, 2-(1-(4-chlorobenzyl)-5-hydroxy-2-methyl-1H-indol-3-yl)-N-(3-chlorophenyl)-2-oxoacetamide]",< 100 nM,< 25%,< 25%,–
"COc1cc(NC(=O)C(=O)c2c(C)n(Cc3ccc(Cl)cc3)c3cc(F)c(OC)cc23)ccn1 [Compound 72, 2-(1-(4-chlorobenzyl)-6-fluoro-5-methoxy-2-methyl-1H-indol-3-yl)-N-(2-methoxypyridin-4-yl)-2-oxoacetamide]",< 100 nM,< 25%,25 to 50%,–
"COc1ccc2c(c1)c(C(=O)C(=O)Nc1ccnc(OC)c1)c(C)n2Cc1ccccn1 [Compound 77, 2-(5-methoxy-2-methyl-1-(pyridin-2-ylmethyl)-1H-indol-3-yl)-N-(2-methoxypyridin-4-yl)-2-oxoacetamide]",100 to 1000 nM,< 25%,< 25%,–
"COc1cc(NC(=O)C(=O)c2c(C)n(Cc3ncc(F)cc3F)c3ccc(C)cc23)ccn1 [Compound 88, 2-(1-((3,5-difluoropyridin-2-yl)methyl)-2,5-dimethyl-1H-indol-3-yl)-N-(2-methoxypyridin-4-yl)-2-oxoacetamide]",–,< 25%,< 25%,< 100 nM
"COc1ccc(Cn2c(C)c(C(=O)C(=O)Nc3ccnc(OC)c3)c3cc(OC)c(C)cc32)nc1 [Compound 96, 2-(5-methoxy-1-((5-methoxypyridin-2-yl)methyl)-2,6-dimethyl-1H-indol-3-yl)-N-(2-methoxypyridin-4-yl)-2-oxoacetamide]",< 100 nM,< 25%,< 25%,–
"COc1cc(NC(=O)C(=O)c2c(C)n(Cc3ncc(Cl)cc3F)c3cc(Cl)c(OC)cc23)ccn1 [Compound 97, 2-(6-chloro-1-((5-chloro-3-fluoropyridin-2-yl)methyl)-5-methoxy-2-methyl-1H-indol-3-yl)-N-(2-methoxypyridin-4-yl)-2-oxoacetamide]",< 100 nM,< 25%,< 25%,–
"COc1ccc(Cn2c(C)c(C(=O)C(=O)Nc3ccnc(OC)c3)c3cc(OC)c(Cl)cc32)nc1 [Compound 98, 2-(6-chloro-5-methoxy-1-((5-methoxypyridin-2-yl)methyl)-2-methyl-1H-indol-3-yl)-N-(2-methoxypyridin-4-yl)-2-oxoacetamide]",< 100 nM,< 25%,< 25%,–
"COc1cc(NC(=O)C(=O)c2c(C)n(Cc3ncc(Cl)cc3F)c3cc(F)c(OC)cc23)ccn1 [Compound 99, 2-(1-((5-chloro-3-fluoropyridin-2-yl)methyl)-6-fluoro-5-methoxy-2-methyl-1H-indol-3-yl)-N-(2-methoxypyridin-4-yl)-2-oxoacetamide]",< 100 nM,< 25%,< 25%,–
"COc1ccc2c(c1)c(C(=O)C(=O)Nc1ccnc(OC)c1)c(C)n2Cc1ncc(Cl)cc1OC [Compound 100, 2-(1-((5-chloro-3-methoxypyridin-2-yl)methyl)-5-methoxy-2-methyl-1H-indol-3-yl)-N-(2-methoxypyridin-4-yl)-2-oxoacetamide]",100 to 1000 nM,< 25%,< 25%,–
"COc1cc(NC(=O)C(=O)c2c(C)n(Cc3ncc(F)cc3F)c3cc(F)c(OC)cc23)ccn1 [Compound 101, 2-(1-((3,5-difluoropyridin-2-yl)methyl)-6-fluoro-5-methoxy-2-methyl-1H-indol-3-yl)-N-(2-methoxypyridin-4-yl)-2-oxoacetamide]",< 100 nM,< 25%,< 25%,–
